The record followed here is patent publication US20090023718A1 (Aton Pharma, Inc., priority 2003, published 2009).

Where two headings read alike, the source gives them in different places.

Assay [1] concerns the target T1, histone deacetylase, subtype 1 (HDAC1) (Homo sapiens, UniProt Q13547).
T1 construct: Flag; made in house
The experiment in a line: HDAC1-Flag assay (in vitro fluorescent deacetylation assay). It counts as biochemical. Particulars: epitope-tagged human HDAC1 complex, substrate at Km, mean ± spread (N), read-out: HDAC Inhibition (IC50) nm. Here is the method:
Novel compounds were tested for their ability to inhibit histone deacetylase, subtype 1 (HDAC1) using an in vitro deacetylation assay. The enzyme source for this assay was an epitope-tagged human HDAC1 complex immuno-purified from stably expressing mammalian cells. The substrate consisted of a commercial product containing an acetylated lysine side chain (BIOMOL Research Laboratories, Inc., Plymouth Meeting, Pa.). Upon deacetylation of the substrate by incubation with the purified HDAC1 complex, a fluorophore is produced that is directly proportional to the level of deacetylation.

The test system of assay [2] is murine erythroleukemia cell line SC9. The experiment in a line: MTS assay (Cell Titer 96 Aqueous One Solution Cell Proliferation Assay). It counts as cell-based. Particulars: Mus musculus; SC9 cells, 48 hours incubation with increasing concentrations, inhibition of proliferation; mean ± spread (N). Here is the method: The novel compounds of the present invention were tested for their ability to inhibit proliferation of the murine erythroleukemia cell line SC9.
The MTS assay, also referred to as the Cell Titer 96 Aqueous One Solution Cell Proliferation Assay, is a colorimetric method for determining the number of viable cells in proliferation, cytotoxicity or chemosensitivity assays. The MTS reagent contains a novel tetrazolium compound [3-(4,5-dimethylthiazol-2-yl)-5-(3-carboxymethoxyphenyl)-2-(4-sulfophenyl)-2H-tetrazolium, inner salt] and electron coupling reagent (phenazine ethosulfate; PES). Murine erythroleukemia cells (SC-9) were incubated with vehicle or increasing concentrations of compound for 48 hours. Cell proliferation was quantitated by adding a small amount of the MTS reagent directly to culture wells, incubating for 1-4 hours and then recording the absorbance at 490 nm with a 96-well plate reader. The quantity of formazan product, as measured by […] absorbance, is directly proportional to the number of living cells in culture.

[3] abbreviates: Table 1, compounds of formula II.
Setting [4] is: Table 2, compounds of formula III.
Where [5] appears, read: Table 3, compounds of formula IV.
[6] abbreviates: Table 4, compounds of formula V.
The mark [7] stands for this setting: Table 5, other HDAC inhibitors of formula I.

T1 sequence (Q13547 whole entry): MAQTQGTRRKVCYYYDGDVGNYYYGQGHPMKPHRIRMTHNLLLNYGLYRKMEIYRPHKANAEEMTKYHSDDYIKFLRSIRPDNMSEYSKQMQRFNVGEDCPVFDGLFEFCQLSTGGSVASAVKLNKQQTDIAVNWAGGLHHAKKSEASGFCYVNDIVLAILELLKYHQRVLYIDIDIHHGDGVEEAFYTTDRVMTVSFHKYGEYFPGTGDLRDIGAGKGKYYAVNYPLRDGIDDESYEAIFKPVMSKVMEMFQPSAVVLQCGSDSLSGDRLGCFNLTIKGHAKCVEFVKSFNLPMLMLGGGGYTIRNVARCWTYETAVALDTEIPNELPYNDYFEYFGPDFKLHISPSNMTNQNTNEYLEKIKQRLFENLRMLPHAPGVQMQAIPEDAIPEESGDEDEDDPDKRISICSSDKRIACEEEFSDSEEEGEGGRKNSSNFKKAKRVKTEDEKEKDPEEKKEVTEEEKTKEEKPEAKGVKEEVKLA

With `O=C(CCCCCC(=O)N(CC(=O)Nc1nc2ccccc2s1)CC(=O)Nc1nc2ccccc2s1)NO` [Compound 3, Heptanedioic acid bis-(benzothiazol-2-ylcarbamoylmethyl)-amide hydroxyamide], the IC50 in assay [1] (setting [3]) came out at 9.5 ± 4.9 nM; in assay [2] it was 50 ± 27.7 nM.

For `O=C(CCCCCC(=O)N(CC(=O)Nc1ccc(F)cc1)CC(=O)Nc1ccc(F)cc1)NO` [Compound 4, Heptanedioic acid bis-[(4-fluoro-phenylcarbamoyl)-methyl]-amide hydroxyamide], the IC50 in assay [1] (setting [3]) stood at 16 nM; in assay [2], 128 nM.

For the molecule `O=C(CCCCCC(=O)N(CC(=O)Nc1ccccc1)CC(=O)Nc1ccccc1)NO` [Compound 6, Heptanedioic acid bis-phenylcarbamoylmethyl-amide hydroxyamide], the IC50 in assay [1] (setting [3]) was 20.5 ± 0.7 nM; in assay [2] it was 304 ± 83.4 nM.

In the case of `O=C(CCCCCC(=O)N(CC(=O)Nc1ccccc1)CC(=O)Nc1cccc2cccnc12)NO` [Compound 7, Heptanedioic acid hydroxyamide phenylcarbamoylmethyl-(quinolin-8-ylcarbamoylmethyl)-amide], the results for the IC50 in assay [1] (setting [3]) and in assay [2] were 25 ± 21.2 nM and 46 ± 10.9 nM, respectively.

Take `O=C(CCCCCC(=O)N(CC(=O)NCCc1ccccc1)CC(=O)Nc1ccccc1)NO` [Compound 8, Heptanedioic acid hydroxyamide (phenethylcarbamoyl-methyl)-phenylcarbamoylmethyl-amide]: the half-inhibitory concentration (IC50) came out at 26 ± 5.6 nM in assay [1] (setting [3]) and 852 nM in assay [2].

With `O=C(CCCCCC(=O)N(CC(=O)Nc1cccc2cccnc12)CC(=O)Nc1cccc2cccnc12)NO` [Compound 9, Heptanedioic acid bis-(quinolin-8-ylcarbamoylmethyl)-amide hydroxyamide], the IC50 stood at 26.5 ± 6.3 nM in assay [1] (setting [3]) and 52 ± 24.9 nM in assay [2].

`O=C(CCCCCC(=O)N(CC(=O)Nc1ccccc1)CC(=O)NC1CCCCC1)NO` [Compound 11, Heptanedioic acid cyclohexylcarbamoylmethyl-phenylcarbamoylmethyl-amide hydroxyamide]: the 50% inhibitory concentration (IC50) came out at 34.5 ± 12.7 nM in assay [1] (setting [3]) and 705 nM in assay [2].

Turning to `O=C(CCCCCC(=O)N(CC(=O)Nc1ccc(C(F)(F)F)cc1)CC(=O)Nc1ccc(C(F)(F)F)cc1)NO` [Compound 25, Heptanedioic acid bis-[(4-trifluoromethyl-phenylcarbamoyl)-methyl]-amide hydroxyamide], the IC50 stood at 89.5 ± 12 nM in assay [1] (setting [3]) and 340 nM in assay [2].

Take `O=C(CCCCN(CC(=O)NCc1ccccc1)CC(=O)NCc1ccccc1)NO` [Compound 55, 5-[Bis-(benzylcarbamoyl-methyl)-amino]-pentanoic acid hydroxyamide]: the IC50 in assay [1] (setting [4]) is 907 ± 60.8 nM.

As for `O=C(CCCCCN(CC(=O)N1CCCCC1)CC(=O)N1CCCCC1)NO` [Compound 56, 6-[Bis-(2-oxo-2-piperidin-1-yl-ethyl)-amino]-hexanoic acid hydroxyamide], in assay [1] (setting [4]), the IC50 came to 2080 ± 383 nM.

In the case of `O=C(CCCCCN(CC(=O)N1CCOCC1)CC(=O)N1CCOCC1)NO` [Compound 57, 6-[Bis-(2-morpholin-4-yl-2-oxo-ethyl)-amino]-hexanoic acid hydroxyamide], in assay [1] (setting [4]), the IC50 came to 2280 ± 889 nM.

Consider `O=C(CCCCC(=O)N(Cc1ccccc1)Cc1ccccc1)NO` [Compound 58], for which the IC50 in assay [1] (setting [5]) came out at 899 ± 243 nM.

As for `O=C(CCCCC(=O)N(CCc1ccccc1)Cc1ccccc1)NO` [Compound 59], in assay [1] (setting [5]), the 50% inhibitory concentration (IC50) turned out to be 2590 ± 807 nM.

With `O=C(CCCCCCC(=O)N(CCc1c[nH]c2ccccc12)Cc1ccc(Br)cc1)NO` [Compound 60], in assay [1] (setting [5]), the IC50 stood at 387 ± 80.6 nM.

As for `O=C(CCCCCC(=O)N(CCc1c[nH]c2ccccc12)Cc1ccc(Br)cc1)NO` [Compound 61], the concentration for half-maximal inhibition (IC50) in assay [1] (setting [5]) was found to be 162 ± 88.3 nM.

On to `O=C(CCCCCCC(=O)N(Cc1ccccc1)Cc1ccccc1)NO` [Compound 62], for which, in assay [1] (setting [5]), the half-inhibitory concentration (IC50) was determined as 462 ± 51.6 nM.

With `O=C(CCCCCCC(=O)N(CCc1ccccc1)Cc1ccccc1)NO` [Compound 63], the IC50 in assay [1] (setting [5]) came out at 591 ± 46.6 nM.

For `O=C(CCCCCCCCC(=O)N(CCc1ccccc1)Cc1ccccc1)NO` [Compound 64], the IC50 in assay [1] (setting [5]) was 434 ± 2.8 nM.

Regarding `O=C(CCCCCCC(=O)N1CCN(C(=O)OCc2ccccc2)CC1)NO` [Compound 65], the IC50 in assay [1] (setting [5]) is 301 ± 21.2 nM.

As to `O=C(CCC(=O)N1CCN(c2ccccc2)CC1)NO` [Compound 66], the concentration for half-maximal inhibition (IC50) in assay [1] (setting [5]) was 44300 nM.

Consider `O=C(CCC(=O)N1CCN(c2ccc(Cl)cc2)CC1)NO` [Compound 67], for which the IC50 in assay [1] (setting [5]) came to 16200 nM.

As for `O=C(CCC(=O)N1CCN(c2ccccc2Cl)CC1)NO` [Compound 68], in assay [1] (setting [5]), the IC50 was determined as 73300 nM.

As for `O=C(CCC(=O)N1CCN(c2cccc(Cl)c2)CC1)NO` [Compound 69], in assay [1] (setting [5]), the IC50 amounted to 13000 nM.

As for `CC(=O)c1ccc(N2CCN(C(=O)CCC(=O)NO)CC2)cc1` [Compound 70], the concentration for half-maximal inhibition (IC50) in assay [1] (setting [5]) was 24000 nM.

Consider `O=C(CCCC(=O)N1CCN(c2ccccc2)CC1)NO` [Compound 71, 5-Oxo-5-(4-phenyl-piperazin-1-yl)-pentanoic acid hydroxyamide], for which the IC50 in assay [1] (setting [5]) amounted to 1220 ± 31.1 nM.

Regarding `O=C(CCCC(=O)N1CCN(c2cccc(Cl)c2)CC1)NO` [Compound 72, 5-[4-(3-Chloro-phenyl)-piperazin-1-yl]-5-oxo-pentanoic acid hydroxyamide], the IC50 in assay [1] (setting [5]) was 474 ± 36 nM.

Regarding `O=C(CCCC(=O)N1CCN(c2ccc(Cl)cc2)CC1)NO` [Compound 73, 5-[4-(4-Chloro-phenyl)-piperazin-1-yl]-5-oxo-pentanoic acid hydroxyamide], the half-maximal inhibitory concentration (IC50) in assay [1] (setting [5]) was 988 ± 93.3 nM.

For `O=C(CCCCC(=O)N1CCN(c2ccccc2)CC1)NO` [Compound 74, 6-Oxo-6-(4-phenyl-piperazin-1-yl)-hexanoic acid hydroxyamide], the IC50 in assay [1] (setting [5]) was 1350 ± 106 nM.

For `O=C(CCCCC(=O)N1CCN(c2cccc(Cl)c2)CC1)NO` [Compound 75, 6-[4-(3-Chloro-phenyl)-piperazin-1-yl]-6-oxo-hexanoic acid hydroxyamide], the half-maximal inhibitory concentration (IC50) in assay [1] (setting [5]) amounted to 621 ± 94 nM.

`O=C(CCCCC(=O)N1CCN(c2ccc(Cl)cc2)CC1)NO` [Compound 76, 6-[4-(4-Chloro-phenyl)-piperazin-1-yl]-6-oxo-hexanoic acid hydroxyamide]: the IC50 in assay [1] (setting [5]) was found to be 475 ± 9.1 nM.

On to `O=C(CCCCCCC(=O)N1CCN(c2cccc(Cl)c2)CC1)NO` [Compound 77, 8-[4-(3-Chloro-phenyl)-piperazin-1-yl]-8-oxo-octanoic acid hydroxyamide], for which the 50% inhibitory concentration (IC50) in assay [1] (setting [5]) stood at 39 ± 2.8 nM.

Take `O=C(CCCCCCCCC(=O)N1CCN(c2ccc(Cl)cc2)CC1)NO` [Compound 79, 10-[4-(4-Chloro-phenyl)-piperazin-1-yl]-10-oxo-decanoic acid hydroxyamide]: the IC50 in assay [1] (setting [5]) was determined as 169 ± 30.4 nM.

Regarding `O=C(CCCCCCN(Cc1ccccc1)Cc1ccccc1)NO` [Compound 80], the IC50 in assay [1] (setting [6]) is 374 ± 39.5 nM.

Turning to `O=C(CCCCCCN(CCc1c[nH]c2ccccc12)Cc1ccc(Br)cc1)NO` [Compound 82], the half-maximal inhibitory concentration (IC50) in assay [1] (setting [6]) was 188 ± 72.8 nM.

Turning to `O=C(CCCCCCCN(CCc1c[nH]c2ccccc12)Cc1ccc(Br)cc1)NO` [Compound 83], in assay [1] (setting [6]), the IC50 was 204 ± 58.6 nM.

For the molecule `CN(CCCCCC(=O)NO)CC(=O)NCc1ccccc1` [Compound 85], the IC50 in assay [1] (setting [7]) came to 571 ± 52.3 nM.

Take `CN(CCCCCC(=O)NO)CC(=O)NCCc1ccccc1` [Compound 86]: the IC50 in assay [1] (setting [7]) worked out at 247 ± 33.2 nM.

Take “Hexanedioic acid bis-(quinolin-8-ylcarbamoylmethyl)-amide hydroxyamide [Compound 15]”: in assay [1] (setting [3]), the 50% inhibitory concentration (IC50) was 82 ± 9.8 nM.

As a reminder, the IC50 is the point on the concentration scale where inhibition reaches its midpoint.
